≈ marks a conversion by molar mass, not a printed value.
Tests used:
Staphylococcus aureus [1] = assay: Antibacterial activity against Staphylococcus aureus clinical isolate 14 assessed as growth inhibition at pH 5 after 16 to 18 hr by NCCLS agar dilution method; type: functional
Staphylococcus aureus [2] = assay: Antibacterial activity against Staphylococcus aureus clinical isolate 4 assessed as growth inhibition at pH 5 after 16 to 18 hr by NCCLS agar dilution method; type: functional
Staphylococcus aureus [3] = assay: Antibacterial activity against Staphylococcus aureus clinical isolate 9 assessed as growth inhibition at pH 7 after 16 to 18 hr by NCCLS agar dilution method; type: functional
Staphylococcus aureus [4] = assay: Antibacterial activity against Staphylococcus aureus clinical isolate 8 assessed as growth inhibition after 16 to 18 hr by NCCLS agar dilution method; type: functional
Escherichia coli = assay: Antibacterial activity against Escherichia coli ATCC 25922 assessed as growth inhibition after 16 to 18 hr NCCLS agar dilution method; type: functional
Staphylococcus aureus [5] = assay: Antibacterial activity against Staphylococcus aureus clinical isolate 17 assessed as growth inhibition at pH 5 after 16 to 18 hr by NCCLS agar dilution method; type: functional
Staphylococcus aureus [6] = assay: Antibacterial activity against methicillin-resistant Staphylococcus aureus isolate 2 assessed as growth inhibition after 16 to 18 hr by NCCLS agar dilution method; type: functional
Staphylococcus aureus [7] = assay: Antibacterial activity against Staphylococcus aureus clinical isolate 13 assessed as growth inhibition at pH 5 after 16 to 18 hr by NCCLS agar dilution method; type: functional
Staphylococcus aureus [8] = assay: Antibacterial activity against Staphylococcus aureus clinical isolate assessed as growth inhibition at pH 9 after 16 to 18 hr by NCCLS agar dilution method; type: functional
Staphylococcus aureus [9] = assay: Antibacterial activity against Staphylococcus aureus clinical isolate 2 assessed as growth inhibition after 16 to 18 hr by NCCLS agar dilution method; type: functional
Helicobacter pylori [10] = assay: Antibacterial activity against Helicobacter pylori 06-8 assessed as growth inhibition after 16 to 18 hr NCCLS agar dilution method; type: functional
Staphylococcus aureus [11] = assay: Bactericidal activity against Staphylococcus aureus clinical isolate 2 after 24 hr; type: functional; details: isolate 2, 24 h
Staphylococcus aureus [12] = assay: Antibacterial activity against Staphylococcus aureus clinical isolate 20 assessed as growth inhibition at pH 7 after 16 to 18 hr by NCCLS agar dilution method; type: functional
Staphylococcus aureus [13] = assay: Antibacterial activity against Staphylococcus aureus clinical isolate 23 assessed as growth inhibition at pH 5 after 16 to 18 hr by NCCLS agar dilution method; type: functional
Staphylococcus aureus [14] = assay: Antibacterial activity against Staphylococcus aureus clinical isolate 10 assessed as growth inhibition at pH 9 after 16 to 18 hr by NCCLS agar dilution method; type: functional
Staphylococcus aureus [15] = assay: Antibacterial activity against Staphylococcus aureus clinical isolate 20 assessed as growth inhibition at pH 5 after 16 to 18 hr by NCCLS agar dilution method; type: functional
Staphylococcus aureus [16] = assay: Bactericidal activity against methicillin-resistant Staphylococcus aureus isolate 3 after 24 hr; type: functional; details: isolate 3, 24 h
[17] = Acute toxicity in KM Mus musculus (mouse) administered through intragastrically measured for 1 week; type: organism-based; details: in vivo, po
Staphylococcus aureus [18] = assay: Bactericidal activity against methicillin-resistant Staphylococcus aureus isolate 2 after 24 hr; type: functional; details: isolate 2, 24 h
Staphylococcus aureus [19] = assay: Antibacterial activity against Staphylococcus aureus clinical isolate 21 assessed as growth inhibition at pH 7 after 16 to 18 hr by NCCLS agar dilution method; type: functional
Staphylococcus aureus [20] = assay: Antibacterial activity against methicillin-resistant Staphylococcus aureus isolate 5 assessed as growth inhibition after 16 to 18 hr by NCCLS agar dilution method; type: functional
Staphylococcus aureus [21] = assay: Antibacterial activity against Staphylococcus aureus clinical isolate 5 assessed as growth inhibition at pH 5 after 16 to 18 hr by NCCLS agar dilution method; type: functional
Staphylococcus aureus [22] = assay: Antibacterial activity against Staphylococcus aureus clinical isolate 4 assessed as growth inhibition at pH 7 after 16 to 18 hr by NCCLS agar dilution method; type: functional
Staphylococcus aureus [23] = assay: Antibacterial activity against Staphylococcus aureus clinical isolate 24 assessed as growth inhibition at pH 7 after 16 to 18 hr by NCCLS agar dilution method; type: functional
Staphylococcus aureus [24] = assay: Antibacterial activity against Staphylococcus aureus clinical isolate 1 assessed as growth inhibition at pH 9 after 16 to 18 hr by NCCLS agar dilution method; type: functional
Helicobacter pylori [25] = assay: Antibacterial activity against Helicobacter pylori 06-5 assessed as growth inhibition after 16 to 18 hr NCCLS agar dilution method; type: functional
Staphylococcus aureus [26] = assay: Antibacterial activity against Staphylococcus aureus clinical isolate 17 assessed as growth inhibition at pH 9 after 16 to 18 hr by NCCLS agar dilution method; type: functional
Staphylococcus aureus [27] = assay: Antibacterial activity against Staphylococcus aureus ATCC 25923 assessed as growth inhibition after 16 to 18 hr by NCCLS agar dilution method; type: functional
Staphylococcus aureus [28] = assay: Antibacterial activity against Staphylococcus aureus clinical isolate 6 assessed as growth inhibition at pH 9 after 16 to 18 hr by NCCLS agar dilution method; type: functional
Staphylococcus aureus [29] = assay: Antibacterial activity against Staphylococcus aureus clinical isolate 9 assessed as growth inhibition at pH 5 after 16 to 18 hr by NCCLS agar dilution method; type: functional
Staphylococcus aureus [30] = assay: Antibacterial activity against Staphylococcus aureus clinical isolate 22 assessed as growth inhibition at pH 9 after 16 to 18 hr by NCCLS agar dilution method; type: functional
Staphylococcus aureus [31] = assay: Antibacterial activity against Staphylococcus aureus clinical isolate 7 assessed as growth inhibition at pH 7 after 16 to 18 hr by NCCLS agar dilution method; type: functional
Staphylococcus aureus [32] = assay: Bactericidal activity against Staphylococcus aureus clinical isolate 1 after 24 hr; type: functional; details: isolate 1, 24 h
Helicobacter pylori [33] = assay: Antibacterial activity against Helicobacter pylori assessed as growth inhibition after 16 to 18 hr NCCLS agar dilution method; type: functional
Staphylococcus aureus [34] = assay: Antibacterial activity against Staphylococcus aureus clinical isolate assessed as growth inhibition after 16 to 18 hr by NCCLS agar dilution method; type: functional
Staphylococcus aureus [35] = assay: Antibacterial activity against methicillin-resistant Staphylococcus aureus isolate 3 assessed as growth inhibition after 16 to 18 hr by NCCLS agar dilution method; type: functional
Helicobacter pylori [36] = assay: Antibacterial activity against Helicobacter pylori 05-12 assessed as growth inhibition after 16 to 18 hr NCCLS agar dilution method; type: functional
Staphylococcus aureus [37] = assay: Antibacterial activity against Staphylococcus aureus clinical isolate 4 assessed as growth inhibition at pH 9 after 16 to 18 hr by NCCLS agar dilution method; type: functional
Helicobacter pylori [38] = assay: Antibacterial activity against Helicobacter pylori 06-1 assessed as growth inhibition after 16 to 18 hr NCCLS agar dilution method; type: functional
Staphylococcus aureus [39] = assay: Bactericidal activity against Staphylococcus aureus clinical isolate 8 after 24 hr; type: functional; details: isolate 8, 24 h
Staphylococcus aureus [40] = assay: Bactericidal activity against Staphylococcus aureus clinical isolate 4 after 24 hr; type: functional; details: isolate 4, 24 h
Staphylococcus aureus [41] = assay: Antibacterial activity against methicillin-resistant Staphylococcus aureus isolate 4 assessed as growth inhibition after 16 to 18 hr by NCCLS agar dilution method; type: functional
Staphylococcus aureus [42] = assay: Antibacterial activity against methicillin-resistant Staphylococcus aureus isolate 1 assessed as growth inhibition after 16 to 18 hr by NCCLS agar dilution method; type: functional
Staphylococcus aureus [43] = assay: Antibacterial activity against Staphylococcus aureus clinical isolate 19 assessed as growth inhibition at pH 9 after 16 to 18 hr by NCCLS agar dilution method; type: functional

## CO/N=C/CC(=O)c1ccc(OC)cc1
Staphylococcus aureus [1]
  MIC: 32 µg/mL (≈ 154 µM)
Staphylococcus aureus [2]
  MIC: 64 µg/mL (≈ 309 µM)
Staphylococcus aureus [3]
  MIC: 32 µg/mL (≈ 154 µM)
Staphylococcus aureus [4]
  MIC: 16 µg/mL (≈ 77.2 µM)
Escherichia coli
  MIC: > 64 µg/mL
Staphylococcus aureus [5]
  MIC: 16 µg/mL (≈ 77.2 µM)
Staphylococcus aureus [6]
  MIC: 8 µg/mL (≈ 38.6 µM)
Staphylococcus aureus [7]
  MIC: 32 µg/mL (≈ 154 µM)
Staphylococcus aureus [8]
  MIC50: 8 µg/mL (≈ 38.6 µM)
  MIC90: 16 µg/mL (≈ 77.2 µM)
Staphylococcus aureus [9]
  MIC: 16 µg/mL (≈ 77.2 µM)
Helicobacter pylori [10]
  MIC: 32 µg/mL (≈ 154 µM)
Staphylococcus aureus [11]
  MBC: 64 µg/mL (≈ 309 µM)
Staphylococcus aureus [12]
  MIC: 16 µg/mL (≈ 77.2 µM)
Staphylococcus aureus [13]
  MIC: 16 µg/mL (≈ 77.2 µM)
Staphylococcus aureus [14]
  MIC: 8 µg/mL (≈ 38.6 µM)
Staphylococcus aureus [15]
  MIC: 64 µg/mL (≈ 309 µM)
Staphylococcus aureus [16]
  MBC: 256 µg/mL (≈ 1240 µM)
[17]
  MTD at 168 h: 5000 mg/kg
Staphylococcus aureus [18]
  MBC: 256 µg/mL (≈ 1240 µM)
Staphylococcus aureus [19]
  MIC: 16 µg/mL (≈ 77.2 µM)
Staphylococcus aureus [20]
  MIC: 8 µg/mL (≈ 38.6 µM)
Staphylococcus aureus [21]
  MIC: 16 µg/mL (≈ 77.2 µM)
Staphylococcus aureus [22]
  MIC: 16 µg/mL (≈ 77.2 µM)
Staphylococcus aureus [23]
  MIC: 8 µg/mL (≈ 38.6 µM)
Staphylococcus aureus [24]
  MIC: 16 µg/mL (≈ 77.2 µM)
Helicobacter pylori [25]
  MIC: 32 µg/mL (≈ 154 µM)
Staphylococcus aureus [26]
  MIC: 16 µg/mL (≈ 77.2 µM)
Staphylococcus aureus [27]
  MIC: 2 µg/mL (≈ 9.65 µM)
Staphylococcus aureus [28]
  MIC: 8 µg/mL (≈ 38.6 µM)
Staphylococcus aureus [29]
  MIC: 32 µg/mL (≈ 154 µM)
Staphylococcus aureus [30]
  MIC: 8 µg/mL (≈ 38.6 µM)
Staphylococcus aureus [31]
  MIC: 8 µg/mL (≈ 38.6 µM)
Staphylococcus aureus [32]
  MBC: 128 µg/mL (≈ 618 µM)
Helicobacter pylori [33]
  MIC50: 32 µg/mL (≈ 154 µM)
  MIC90: 32 µg/mL (≈ 154 µM)
Staphylococcus aureus [34]
  MIC50: 16 µg/mL (≈ 77.2 µM)
  MIC90: 16 µg/mL (≈ 77.2 µM)
Staphylococcus aureus [35]
  MIC: 8 µg/mL (≈ 38.6 µM)
Helicobacter pylori [36]
  MIC: > 128 µg/mL
Staphylococcus aureus [37]
  MIC: 8 µg/mL (≈ 38.6 µM)
Helicobacter pylori [38]
  MIC: 16 µg/mL (≈ 77.2 µM)
Staphylococcus aureus [39]
  MBC: 32 µg/mL (≈ 154 µM)
Staphylococcus aureus [40]
  MBC: 128 µg/mL (≈ 618 µM)
Staphylococcus aureus [41]
  MIC: 8 µg/mL (≈ 38.6 µM)
Staphylococcus aureus [42]
  MIC: 8 µg/mL (≈ 38.6 µM)
Staphylococcus aureus [43]
  MIC: 16 µg/mL (≈ 77.2 µM)
